Experimental data published in patent US20050019746A1, “Apoptosis-related kinase/GPCRs” (EiRx Therapeutics Limited, priority 2003, published 2005).

Key:
Format in all cases: cell-based, human
[1] = tested on: MCF7 cells; test: Anchorage Independence/Soft Agar Assay, MCF7; design: PERCENTAGE SURVIVAL RELATIVE TO MS, MCF7, n = 2: tested at 2 µg; settings: soft agar; for PERCENTAGE SURVIVAL RELATIVE TO MS, MCF7, n = 1: experiment n = 1; for PERCENTAGE SURVIVAL RELATIVE TO MS, MCF7, n = 2: experiment n = 2
Outline: (§1)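 Cells were transfected for 4 h with 2 μg siRNA against target genes, then seeded at 5×10^4 cells/well in 0.05% agar/medium and grown 12/14 days at 37 °C, 5% CO2. Crystal violet-stained colonies were counted at 4× and morphology assessed; survival expressed relative to missense siRNA control.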

[2] = tested on: HCT15 cells; test: Anchorage Independence/Soft Agar Assay, HCT15; design: PERCENTAGE SURVIVAL RELATIVE TO MS, HCT15, n = 2: tested at 2 µg; PERCENTAGE SURVIVAL RELATIVE TO MS, HCT15, n = 1: tested at 2 µg siRNA; settings: soft agar; for PERCENTAGE SURVIVAL RELATIVE TO MS, HCT15, n = 1: experiment n = 1; for PERCENTAGE SURVIVAL RELATIVE TO MS, HCT15, n = 2: experiment n = 2
Outline: as §1

[3] = tested on: U251 cells; test: Anchorage Independence/Soft Agar Assay, U251; settings: soft agar, experiment n = 1
Experimental: The Anchorage Independence/Soft Agar Assay allows assessment of the influence of modulation of gene expression on clonal tumouroid formation by observing and quantifying tumouroid morphology and colony number over an extended period of logarithmic growth thereby ascertaining any cell death is induced.
Cells are seeded into a 6-well plate and allowed to adhere overnight at 37° C. in a humidified atmosphere containing 5% CO2 in air. Cells are next transfected with siRNA Oligomers, at a concentration of 2 μg, against the genes of interest. Transfections continued for 4 hrs after which the transfection solution is removed and cells are refed with fresh medium and allowed incubate overnight. Transfected cells are next harvested for seeding into soft agar assay as described below. […] Colonies formed are subsequently stained with Crystal Violet, their morphology is assessed and colonies formed are enumerated at a 4× magnification.
The cytotoxic effect of each gene is determined by a reduction in colony number compared to our MS control, but any influence on the morphology of the colony is also noted.
Examples of genes with a cytotoxic effect on knockdown as detected by the soft agar assay are outlined in Table 14. […]

Row | Substance | PERCENTAGE SURVIVAL RELATIVE TO MS, MCF7, n = 1 [1] [%] | PERCENTAGE SURVIVAL RELATIVE TO MS, MCF7, n = 2 [1] [%] | PERCENTAGE SURVIVAL RELATIVE TO MS, HCT15, n = 1 [2] [%] | PERCENTAGE SURVIVAL RELATIVE TO MS, HCT15, n = 2 [2] [%] | PERCENTAGE SURVIVAL RELATIVE TO MS, U251, n = 1 [3] [%]
1 | siRNA MKNK: sense UACAUGGCCCCUGAGGUAGtt, antisense CUACCUCAGGGGCCAUGUAtt (sense UACAUGGCCCCUGAGGUAGTT; antisense CUACCUCAGGGGCCAUGUATT; chemistry not given here) | 25.9 | 4 | 66.3 | 90.9 | 
2 | siRNA MPSK1: sense GGGUUAUGCCCACAGAGACtt, antisense GUCUCUGUGGGCAUAACCCtt (sense GGGUUAUGCCCACAGAGACTT; antisense GUCUCUGUGGGCAUAACCCTT; chemistry not given here) | 35.8 | 30.3 | 42.3 | 62.2 | 18
3 | siRNA PSKH1: sense GAACCUGCACCGCUCCAUAtt, antisense UAUGGAGCGGUGCAGGUUCtt (sense GAACCUGCACCGCUCCAUATT; antisense UAUGGAGCGGUGCAGGUUCTT; chemistry not given here) | 82.6 | 11.9 | 37.2 | 41 | 
4 | siRNA Survivin: positive control siRNA, sense GAACUGGCCCUUCUUGGAGtt, antisense CUCCAAGAAGGGCCAGUUCtt (sense GAACUGGCCCUUCUUGGAGTT; antisense CUCCAAGAAGGGCCAGUUCTT; chemistry not given here) [reference compound] | 80.3 | 50.3 | 71.5 | 48.6 | 
